The text below walks through data of US12473295B2, “Substituted straight chain spiro derivatives” (Janssen Pharmaceutica NV, priority 2019, dated 2025).

Structures are written as SMILES. Structures can show the parent of a compound that is named as a salt.

In one test the test system is MEIS1 mRNA. The test can be described thus: MEIS1 mRNA expression assay (Quantigene Singleplex) in MOLM14 cells.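 Further: MEIS1 transcript levels read by probe hybridization and normalized to RPL28 mRNA, with IC50 fitted to fold changes across a rising compound concentration series.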 It is filed as cell-based, human. To be noted: Homo sapiens, MOLM-14, 48 h, 48 hours incubation.
The next test deals with KO-52 cells. The test can be described thus: Proliferation assay (spheroid growth, 8 days), KO-52 control cell line. The test is classed as cell-based, human. The settings on record: Homo sapiens, […], read-out: spheroid assay_OneTime KO-52 IC50. The essentials:
(§1)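 Cells were seeded at 200 (MOLM14, OCI-AML3) or 300 (KO-52) per well in ultra-low attachment round-bottom plates with compounds at several concentrations, 0.3% DMSO, and grown 8 days at 37° C. Spheroid confluence was imaged on day 8; IC50 came from a variable-slope fit normalized to DMSO and high-dose reference compound.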

For test [1], the target named is menin/MLL (terbium chelate-labeled menin, FITC-MBM1 peptide) (Homo sapiens (Human), UniProt O00255). Put plainly: Menin/MLL homogenous time-resolved fluorescence (HTRF) assay.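 Further: IC50 from percent inhibition of HTRF signal, normalized between wells without competitor and wells with a saturating competitor that displaces FITC-MBM1 from His-tagged menin.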 It is filed as binding. To be noted: HTRF-30 min incubation IC50, 30 min incubation.
Chain of menin/MLL (terbium chelate-labeled menin, FITC-MBM1 peptide) (O00255 other isoform, or with tags, fused parts or gaps): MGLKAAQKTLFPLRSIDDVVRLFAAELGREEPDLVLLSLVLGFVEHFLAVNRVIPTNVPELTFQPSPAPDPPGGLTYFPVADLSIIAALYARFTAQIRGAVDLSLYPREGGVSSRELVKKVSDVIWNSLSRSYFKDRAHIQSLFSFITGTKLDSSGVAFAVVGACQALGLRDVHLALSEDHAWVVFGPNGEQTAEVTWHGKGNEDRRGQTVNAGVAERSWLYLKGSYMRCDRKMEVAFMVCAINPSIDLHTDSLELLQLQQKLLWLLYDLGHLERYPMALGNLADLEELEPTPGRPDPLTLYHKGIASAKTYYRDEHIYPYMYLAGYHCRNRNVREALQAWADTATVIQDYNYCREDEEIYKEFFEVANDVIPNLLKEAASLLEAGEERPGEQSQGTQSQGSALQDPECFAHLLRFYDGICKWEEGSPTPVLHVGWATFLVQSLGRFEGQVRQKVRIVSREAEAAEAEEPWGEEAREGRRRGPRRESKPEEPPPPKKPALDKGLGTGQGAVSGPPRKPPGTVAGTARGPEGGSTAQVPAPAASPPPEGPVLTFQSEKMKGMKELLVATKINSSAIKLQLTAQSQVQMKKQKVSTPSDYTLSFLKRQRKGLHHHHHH
For a further test, the system named is OCI-AML3 cells. The test can be described thus: Proliferation assay (spheroid growth, 8 days), OCI-AML3. The test is classed as cell-based, human. To be noted: Homo sapiens, OCI-AML-3, […], OCI-AML3, 8 days. Summed up: as §1
For the next test, the system named is MOLM14 cells. The test can be described thus: Proliferation assay (spheroid growth, 8 days), MOLM14.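 Further: spheroid size read as confluence by live-cell imaging, compounds added at a range of concentrations with 0.3% DMSO, DMSO-treated wells = 0%, highest reference dose = low control.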 It is filed as cell-based, human. To be noted: Homo sapiens, MOLM-14, […], MOLM14, 8 days; read-out: spheroid assay_OneTime MOLM14 IC50.

The IC50 is the concentration that inhibits the measured activity by half. `CCCN(C)C[C@H](O)C[C@H](C(C)C)N1CC2(CCN(c3ncnnc3Oc3ccc(F)cc3C(=O)N(CC)C(C)C)C2)C1` (single isomer, unassigned) [Compound 386, N-ethyl-5-fluoro-2-((5-(2-((3*R,5*R)-5-hydroxy-2-methyl-6-(methyl(propyl)amino)hexan-3-yl)-2,6-diazaspiro[3.4]octan-6-yl)-1,2,4-triazin-6-yl)oxy)-N-isopropylbenzamide fumarate]: the half-inhibitory concentration (IC50) in the test on MEIS1 mRNA is 61 nM; in the test on KO-52 cells, 9600 nM; in test [1], about 0.59 nM; in the test with OCI-AML3 cells, 810 nM; in the test with MOLM14 cells, 160 nM.
With `CC(C)[C@@H](CCC(N)=O)N1CC2(CCN(c3ncnnc3Oc3ccc(F)cc3-c3cncnc3C3CC3)C2)C1` (single isomer, unassigned) [Compound 43, (*R)-4-(6-(6-(2-(4-cyclopropylpyrimidin-5-yl)-4-fluorophenoxy)-1,2,4-triazin-5-yl)-2,6-diazaspiro[3.4]octan-2-yl)-5-methylhexanamido], the IC50 with MEIS1 mRNA was about 240 nM; with KO-52 cells, over 15000 nM; in test [1], 0.55 nM; with OCI-AML3 cells, 1200 nM; with MOLM14 cells, 290 nM.
In the same order, the values of `CCN(C(=O)c1cc(F)ccc1Oc1nncnc1N1CCC2(C1)CN([C@H](CCCN(C)C[C@H](O)COC)C(C)C)C2)C(C)C` [Compound 285, N-ethyl-5-fluoro-2-((5-(2-((R)-6-(((S)-2-hydroxy-3-methoxypropyl)(methyl)amino)-2-methylhexan-3-yl)-2,6-diazaspiro[3.4]octan-6-yl)-1,2,4-triazin-6-yl)oxy)-N-isopropylbenzamide formate] are 270 nM, over 15000 nM, 1.02 nM, 130 nM and 160 nM.
In the same order, the values of `COCCN(C)CCC[C@H](C(C)C)N1CC2(CCN(c3ccnnc3Oc3ccc(F)cc3C(=O)N(C(C)C)C(C)C)C2)C1` (single isomer, unassigned) [Compound 88, (*R)-5-fluoro-N,N-isopropyl-2-((4-(2-(6-((2-methoxyethyl)(methyl)amino)-methylhexan-3-yl)-2,6-diazaspiro[3.4]octan-6-yl)pyridazin-3-yl)oxy)benzamide oxalate] are 130 nM, 14000 nM, 0.083 nM, 810 nM and 120 nM.
In the same order, the values of `CCN(C(=O)c1cc(F)ccc1Oc1nncnc1N1CCC2(C1)CN([C@H](CCN)C(C)C)C2)C(C)C` (single isomer, unassigned) [Compound 219, (*R)-2-((5-(2-(1-amino-4-methylpentan-3-yl)-2,6-diazaspiro[3.4]octan-6-yl)-1,2,4-triazin-6-yl)oxy)-N-ethyl-5-fluoro-N-isopropylbenzamide fumarate] are about 230 nM, over 15000 nM, 0.27 nM, 430 nM and 130 nM.
For the molecule `CCN(C(=O)c1cc(F)ccc1Oc1nncnc1N1CCC2(C1)CN([C@H](C[C@H](O)CN(C)C(C)C)C(C)C)C2)C(C)C` (single isomer, unassigned) [Compound 325, N-ethyl-5-fluoro-2-((5-(2-((3*R,5*S)-5-hydroxy-6-(isopropyl(methyl)amino)-2-methylhexan-3-yl)-2,6-diazaspiro[3.4]octan-6-yl)-1,2,4-triazin-6-yl)oxy)-N-isopropylbenzamide fumarate], the half-inhibitory concentration (IC50) in the test on MEIS1 mRNA is 15 nM; with KO-52 cells it was over 15000 nM; in test [1], about 0.16 nM; in the test on OCI-AML3 cells, 190 nM; with MOLM14 cells, 16 nM.
Consider `CCN(C(=O)c1cc(F)ccc1Oc1nncnc1N1CCC2(C1)CN([C@H](CCCN(C)C[C@@H](C)OC)C(C)C)C2)C(C)C` (single isomer, unassigned) [Compound 250, N-ethyl-5-fluoro-N-isopropyl-2-((5-(2-((R)-6-(((*R)-2-methoxypropyl)(methyl)amino)-2-methylhexan-3-yl)-2,6-diazaspiro[3.4]octan-6-yl)-1,2,4-triazin-6-yl)oxy)benzamide oxalate], for which the IC50 with MEIS1 mRNA came to 91 nM; in the test on KO-52 cells, 7050 nM; in test [1], 0.18 nM; in the test on OCI-AML3 cells, 410 nM; in the test with MOLM14 cells it was 220 nM.
On the same counts, the results for `CCN(C(=O)c1cc(F)ccc1Oc1nncnc1N1CCC2(C1)CN([C@H](CCCN(C)CCCOC)C(C)C)C2)C(C)C` [Compound 142, (R)-N-ethyl-5-fluoro-N-isopropyl-2-((5-(2-(6-((3-methoxypropyl)(methyl)amino)-2-methylhexan-3-yl)-2,6-diazaspiro[3.4]octan-6-yl)-1,2,4-triazin-6-yl)oxy)benzamide fumarate] are 51 nM, over 15000 nM, 0.071 nM, 220 nM and 12 nM.
Turning to `COCCN(C)CCC[C@@H](C(C)C)N1CC2(CCN(c3ncnnc3Oc3ccc(F)cc3C(=O)N(C(C)C)C(C)C)C2)C1` (single isomer, unassigned) [Compound 95, (*S)-5-fluoro-N,N-isopropyl-2-((5-(2-(6-((2-methoxyethyl)(methyl)amino)-methylhexan-3-yl)-2,6-diazaspiro[3.4]octan-6-yl)-1,2,4-triazin-6-yl)oxy)benzamide oxalate], the IC50 is about 620 nM in the test with MEIS1 mRNA; over 15000 nM in the test on KO-52 cells; 4.98 nM in test [1]; 1620 nM in the test on OCI-AML3 cells; 390 nM with MOLM14 cells.
On the same counts, the results for `CCN(C(=O)c1cc(F)ccc1Oc1nncnc1N1CCC2(C1)CN([C@@H](CCCN(C)C(C)C)C(C)C)C2)C(C)C` (single isomer, unassigned) [Compound 123, (*S)—N-ethyl-5-fluoro-N-isopropyl-2-((5-(2-(6-(isopropyl(methyl)amino)-2-methylhexan-3-yl)-2,6-diazaspiro[3.4]octan-6-yl)-1,2,4-triazin-6-yl)oxy)benzamide fumarate] are over 1000 nM, over 15000 nM, 3.98 nM, 3550 nM and over 940 nM.
On the same counts, the results for `CC(C)[C@@H](CCCN(C)CCC(=O)N(C)C)N1CC2(CCN(c3ncnnc3Oc3ccc(F)cc3C(=O)N(C(C)C)C(C)C)C2)C1` (single isomer, unassigned) [Compound 145, (*R)-2-((5-(2-(6-((3-(dimethylamino)-3-oxopropyl)(methyl)amino)-2-methylhexan-3-yl)-2,6-diazaspiro[3.4]octan-6-yl)-1,2,4-triazin-6-yl)oxy)-5-fluoro-N,N-diisopropylbenzamide fumarate] are 21 nM, over 15000 nM, 0.07 nM, 110 nM and 14 nM.
On the same counts, the results for `CCN(C(=O)c1cc(F)ccc1Oc1nncnc1N1CCC2(C1)CN([C@H](CCCNC(=O)NC)C(C)C)C2)C(C)C` [Compound 8, (R)-N-ethyl-5-fluoro-N-isopropyl-2-((5-(2-(2-methyl-6-(3-methylureido)hexan-3-yl)-2,6-diazaspiro[3.4]octan-6-yl)-1,2,4-triazin-6-yl)oxy)benzamide] are about 650 nM, over 15000 nM, 0.43 nM, 2150 nM and 1020 nM.
